According to patent US10973789B2, “Compositions and methods for treating skin conditions using light and polycarboxylic acids” (Johnson & Johnson Consumer Inc., priority 2017, dated 2021):
Like-named read-outs stand apart in the source and are kept apart here.

System: Propionibacterium acnes ATCC 6919
Procedure: The sample is then recovered onto agar and incubated 5-7 days until clear colonies are visible. […] The anti-P. acnes activity of various test treatments were compared. Anti-P. acnes activity was measured using the in vitro method described above. The test treatments comprised either 0.1 or 0.25 weight percent of succinic acid in reinforced clostridial media with and without the administration of 440 nm blue light. […] Non-control test samples were adjusted to a pH of 4.5.

SMILES: O=C(O)CCC(=O)O [Succinic Acid, Succinic acid (butanedioic acid)]
- antimicrobial activity of the combination relative to the expected additive reduction (0.1% succinic acid + light: 6.7 log reduction vs additive 2.6 log reduction): about 12,000 times
- reduction of P. acnes bacterial count (0.1% succinic acid combined with light): 6.7 logs
- Log 10 reduction vs Control Solution (0.1% succinic acid in reinforced clostridial media, pH 4.5, no light): 2.0 Log 10
- reduction of P. acnes bacterial count (0.1% succinic acid, no light, compared to untreated control solution): 2 logs
- Log 10 reduction vs Control Solution (0.1% succinic acid, pH 4.5, + 440 nm blue light): >6.7 Log 10
- antimicrobial activity of the combination relative to the expected additive reduction (0.25% succinic acid + light: 6.7 log reduction vs additive 6.2 log reduction): about 3 times
- reduction of P. acnes bacterial count (0.25% succinic acid combined with light): 6.7 logs
- Log 10 reduction vs Control Solution (0.25% succinic acid in reinforced clostridial media, pH 4.5, no light): 5.6 Log 10
- reduction of P. acnes bacterial count (0.25% succinic acid, no light, compared to untreated control solution): 5.6 logs
- Log 10 reduction vs Control Solution (0.25% succinic acid, pH 4.5, + 440 nm blue light): >6.7 Log 10
